The record followed here is patent publication US12576047B2, “Telomerase activating compounds for use in fertility and related applications” (Neuromagen Pharma Ltd, priority 2017, dated 2026).

The target of one assay is T1, telomerase (Mus musculus, UniProt O70372).
T1 construct: the ovaries were removed, and proteins extract used for measuring telomerase activity by TRAP assay; from tissue; host or cells: ovary of female ICR mice
T1 sequence (O70372 1-1122): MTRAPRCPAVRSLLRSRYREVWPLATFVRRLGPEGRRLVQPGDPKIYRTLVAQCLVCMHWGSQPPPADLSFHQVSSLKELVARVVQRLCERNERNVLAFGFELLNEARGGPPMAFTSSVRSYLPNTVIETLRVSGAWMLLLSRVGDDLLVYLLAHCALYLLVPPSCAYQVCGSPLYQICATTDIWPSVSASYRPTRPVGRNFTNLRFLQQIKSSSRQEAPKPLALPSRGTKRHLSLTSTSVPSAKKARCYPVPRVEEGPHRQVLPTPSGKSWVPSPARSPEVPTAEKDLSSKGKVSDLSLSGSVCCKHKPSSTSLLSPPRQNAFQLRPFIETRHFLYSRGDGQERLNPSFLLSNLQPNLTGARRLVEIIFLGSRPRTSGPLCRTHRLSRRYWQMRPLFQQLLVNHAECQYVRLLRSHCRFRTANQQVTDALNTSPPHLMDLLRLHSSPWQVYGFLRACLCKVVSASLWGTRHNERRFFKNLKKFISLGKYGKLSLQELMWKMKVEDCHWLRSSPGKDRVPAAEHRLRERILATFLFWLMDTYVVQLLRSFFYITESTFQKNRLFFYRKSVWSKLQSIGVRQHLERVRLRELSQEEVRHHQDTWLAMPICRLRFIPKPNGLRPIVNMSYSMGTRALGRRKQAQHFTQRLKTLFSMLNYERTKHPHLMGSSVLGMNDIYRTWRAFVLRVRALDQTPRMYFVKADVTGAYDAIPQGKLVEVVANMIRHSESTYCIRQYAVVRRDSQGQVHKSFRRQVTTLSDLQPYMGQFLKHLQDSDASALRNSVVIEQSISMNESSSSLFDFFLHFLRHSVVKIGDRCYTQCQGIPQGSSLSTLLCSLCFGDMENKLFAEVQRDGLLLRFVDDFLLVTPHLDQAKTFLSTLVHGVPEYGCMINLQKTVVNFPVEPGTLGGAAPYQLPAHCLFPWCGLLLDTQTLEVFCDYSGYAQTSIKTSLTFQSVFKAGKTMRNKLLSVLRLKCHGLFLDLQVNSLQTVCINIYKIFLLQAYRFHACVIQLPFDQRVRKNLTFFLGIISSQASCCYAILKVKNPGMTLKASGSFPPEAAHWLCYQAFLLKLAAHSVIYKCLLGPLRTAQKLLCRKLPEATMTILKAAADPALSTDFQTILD
The experiment in a line: Telomerase activity in mouse ovary by TRAP assay after s.c. injection. It counts as in vivo. As to conditions: single dose 6 mg/Kg s.c., 12 hours. How it is done: The ovaries were homogenized and centrifuged at 1200 RPM at 4° C. for 10 min, then suspended in CHAPS buffer (10 mM Tris-HCl pH-7.0, 1 mM MgCl2, 1 mM EDTA […], 0.1 mM PMSF, 0.5% 3 [(3 Cholamidopropyl)dimethylammonio]-propanesulfonic acid [CHAPS] and 10% glycerol) on ice for 30 min and centrifuged again at 13500 RPM at 4° C. for 30 min, the supernatant was collected. Total proteins concentration was determined using the Bio-Rad protein assay kit (Bio-Rad Laboratories, Germany).
Telomerase activity in mice ovary was evaluated by a slight modification of the TRAP assay [Grin, Y., T. Admoni, and E. Priel, Telomerase activity in the various regions of mouse brain: non-radioactive telomerase repeat amplification protocol (TRAP) assay. J Vis Exp, 2014 (91): p. e51865]. […] These products were separated on a 4.5% high-resolution agarose mini-gel and detected with Gel-Red solution (X10000 stock solution diluted to X3 working solution with 0.01M NaCl) for 20 minutes. […] Quantification of Telomerase Activity
TRAP assay products were quantified by densitometric analysis using the EZQuant software (EZQuant Ltd. Rehovot, Israel) and normalized to IS (Internal standard). […] The data which were normalized to the IS were calculated as % from the positive control values in each experiment. […]

In another assay the test system is LH. Kind of assay: LH expression by RT-PCR in pituitary gland cells. It counts as cell-based, mouse. As to conditions: 50 nM, vs untreated. How it is done: FIGS. 29A, 29B, 29C and 29D: The embodied compounds affect the expression of gonadotropin hormones in pituitary gland cells. Cells (L T2) derived from the mouse pituitary gland were assessed for their secretion of LH and FSH at 6 (FIGS. 29A and 29B) and 12 hours (FIGS. 29C and 29D) following treatment with the indicated embodied compounds (50 nM). FSH and LH expression was determined by RT-PCR, and quantified from 5 different experiments, as assessed for significance, using the t test, one way ANOVA.

Turning to `CCOCc1cc(C(C)(c2cc(COCC)c(O)c(COCC)c2)c2cc(COCC)c(O)c(COCC)c2)cc(COCC)c1O` [Compound 79], on telomerase (ages 10 days to 3 months), the “telomerase activity in mouse ovary at various ages” value is given as “significantly increased telomerase activity only in the ovary of 3 months old mouse”. In the assay on LH (6 hours post treatment), the LH expression result is “increased expression of LH above untreated levels”.
Regarding `CC(c1cc(Br)c(O)c(Br)c1)(c1cc(Br)c(O)c(Br)c1)c1cc(Br)c(O)c(Br)c1` [Compound 68], the “increase of telomerase activity in mouse ovary” value at telomerase (all examined ages (10 days, 18 days, 1 month, 3 months)) is on record as “up to 1.5 fold”. Moreover, in the assay with LH (12 hours), the LH expression result was “increased LH production above untreated levels”.
